≈ marks a conversion by molar mass, not a printed value.
Conditions: buffer; pH 7.4; 6.0 h; 150.0 µM

Row | Structure (SMILES) | solubility kinetic
1 | Cc1ccccc1S(=O)(=O)N1CCc2cc(-c3nc(NC(=O)Cc4ccc5c(c4)OCO5)sc3C)ccc21 | < 1 µg/mL
2 | CCOc1ccc(NC(=O)CSC2=Nc3ccccc3C3=NC(CC(=O)NCc4cccs4)C(=O)N23)cc1 (centres undefined) | 23.8 µg/mL (≈ 43.4 µM)
3 | Cc1c(-c2nsc(NC(=O)c3cccc(Cl)c3)n2)nnn1-c1ccccc1C(F)(F)F | < 1 µg/mL
4 | O=C(NCc1cccs1)c1cn2cc(-c3ccccc3)sc2n1 | < 1 µg/mL
5 | COc1c(C)cc(NC(=O)c2nn(Cc3ccc(F)cc3)c3c2CN(C(=O)c2ccc[nH]2)C[C@]3(C)C(N)=O)cc1C | < 1 µg/mL
6 | Cc1noc(/C=C/c2ccccc2F)c1S(=O)(=O)N1CCC(C(=O)Nc2ccc(C#N)cc2)CC1 | < 1 µg/mL
7 | O=S(=O)(Nc1nccs1)c1ccc(NCc2cc(F)ccc2O)cc1 | > 56 µg/mL
8 | Cc1nc2ccc(Nc3nc(-c4ccncc4)nc4ccccc34)cc2s1 | < 1 µg/mL
9 | Fc1cnc(-c2ccccc2C(F)F)nc1NCC1CCN(c2cnccn2)C1 (centres undefined) | 42.2 µg/mL (≈ 105 µM)
10 | Cc1nn2c(c1-c1ccccc1-c1ccccc1)N(Cc1ccccc1)CCC2 | 4.07 µg/mL (≈ 10.7 µM)
11 | COc1ccc(CN(C2CCCCC2C)S(=O)(=O)c2ccc(S(=O)(=O)N(C)C)cc2)cc1OC (centres undefined) | < 1 µg/mL
12 | CC(C)(C)c1ccc(C(=O)Nc2ccc3c(c2)CCCN3C(=O)c2cccs2)cc1 | < 1 µg/mL
13 | COc1ccccc1-c1nc(NCc2cnc(C)cn2)c2ccccc2n1 | > 53 µg/mL
14 | COC(=O)c1ccc(O)c2ncc(N3CCN(C)CC3)cc12 | > 30 µg/mL
15 | CC(=O)N1CCc2c(sc3c2c(=O)n(-c2ccccc2)c(=O)n3Cc2cccc(C(F)(F)F)c2)C1 | 10 µg/mL (≈ 20.1 µM)
16 | CC1CN(c2ccc(Nc3nc(-c4ccncc4)nc4ccccc34)cc2F)CC(C)O1 (centres undefined) | < 1 µg/mL
17 | Cc1ccccc1C(=O)N1CCC(C(=O)N2CCC(N3Cc4ccccc4C3=O)CC2)CC1 | > 44 µg/mL
18 | CC(=O)c1c(C)[nH]c(C(=O)Nc2ccc(C)c(S(=O)(=O)N3CCCCCC3)c2)c1C | 1.05 µg/mL (≈ 2.44 µM)
19 | N=c1c2c(ccn1CCc1ccccc1)Oc1ccc3ccccc3c1C2c1ccccc1 (centres undefined) | < 1 µg/mL
20 | O=C(Cc1c[nH]c2ncc(-c3ccc(Cl)cc3)cc12)NCc1cccnc1 | 17.5 µg/mL (≈ 46.4 µM)
21 | Cc1ccc(-c2cc(C(=O)Nc3ccccn3)c3ccccc3n2)cc1 | < 1 µg/mL
22 | O=S(=O)(Nc1nc2ccccc2s1)c1ccc(NCc2cccc(Cl)c2O)cc1 | 1.1 µg/mL (≈ 2.46 µM)
23 | O=C1CN(C(=O)CCC(=O)N2CCc3c(nc4cc(-c5ccccc5)[nH]n4c3=O)C2)c2ccccc2N1 | 15.6 µg/mL (≈ 31.3 µM)
24 | O=C1CCCC2=C1C(c1ccccc1Cl)N=C(Nc1nc3ccccc3o1)N2 (centres undefined) | < 1 µg/mL
25 | O=C1CCCC2=C1C(c1ccccc1I)N=C(Nc1nc3ccccc3o1)N2 (centres undefined) | < 1 µg/mL

Row | Structure (SMILES) | solubility kinetic
26 | CC(=O)Nc1ccc(NC(=O)C(NS(=O)(=O)c2ccc(Br)s2)c2ccccc2)cc1 (centres undefined) | < 1 µg/mL
27 | Cc1cnc(SCc2ccccn2)nc1C1CCCN(C(=O)c2scc3c2CCCC3)C1 (centres undefined) | 4.03 µg/mL (≈ 8.68 µM)
28 | COc1cc(NC(=O)c2cc(-c3ccccc3O)no2)cc(OC)c1OC | 1.09 µg/mL (≈ 2.93 µM)
29 | COc1ccc(C2Nc3ccccc3C(=O)N2Cc2cccnc2)cc1COc1c(C)cc(NC(C)=O)cc1C (centres undefined) | 1.69 µg/mL (≈ 3.16 µM)
30 | O=C(Nc1cccc(Cc2ccccc2)c1)c1ccc(-c2cccc([N+](=O)[O-])c2)o1 | < 1 µg/mL
31 | Cc1ccnc(NC(=S)N2CCN(c3cccc(Cl)c3Cl)CC2)c1 | 2.51 µg/mL (≈ 6.58 µM)
32 | O=c1cc(-c2ccc(O)c(O)c2)oc2cc(O)cc(O)c12 | > 100 µg/mL
33 | Cc1ccc(S(=O)(=O)Nc2ccccc2C(=O)Nc2nccs2)cc1 | 7.17 µg/mL (≈ 19.2 µM)
34 | Cc1ccnc(NC(=S)N2CCN(c3cc(C(F)(F)F)cc(C(F)(F)F)c3)CC2)c1 | 6.7 µg/mL (≈ 14.9 µM)
35 | COc1ccc(C2c3[nH]c4ccc(OC)cc4c3CCN2C(=O)Nc2ccccc2)cc1 (centres undefined) | 1.06 µg/mL (≈ 2.48 µM)
36 | N#CC1(c2ccc(NC(=O)c3cccnc3NCc3ccncc3)cc2)CCCC1 | < 1 µg/mL
37 | CN1CCCC(CC2c3ccccc3Sc3ccccc32)C1.Cl (centres undefined) | > 46 µg/mL
38 | Nc1ccccc1OCCn1c(CCNC(=O)C2CCCCC2)nc2ccccc21 | 44.5 µg/mL (≈ 109 µM)
39 | O=C(NC1CCCc2c1[nH]c1c(Cl)cccc21)c1ccc2c(c1)OCO2 (centres undefined) | < 1 µg/mL
40 | CC(C)Oc1cccc(-c2ccnc(N3CCC(C(N)=O)CC3)n2)c1 | 8.28 µg/mL (≈ 24.3 µM)
41 | O=C1CCCC2=C1C(c1ccncc1Br)N=C(Nc1nc3ccccc3o1)N2 (centres undefined) | < 1 µg/mL
42 | c1ccc(-c2csc3ncnc(Sc4nnn(-c5ccccc5)n4)c23)cc1 | < 1 µg/mL
43 | COc1ccc(C2=Nn3c([n+](C)c4ccccc43)SC2)cc1.[Br-] | > 46 µg/mL
44 | CNc1nccc(-c2cccc3ccccc23)n1 | 4.49 µg/mL (≈ 19.1 µM)
45 | CC(=O)c1c(C)[nH]c(C(=O)N(C)C)c1C | > 31 µg/mL
46 | O=C(Nc1nc(-c2ccccc2)cs1)c1ccncc1NS(=O)(=O)c1ccc(F)c(F)c1 | 49.8 µg/mL (≈ 105 µM)
47 | Cc1ccc(-c2cc(C(=O)Nc3ccncc3)c3ccccc3n2)cc1 | < 1 µg/mL
48 | O=c1cc(CN2CCCN(c3ccc(C(F)(F)F)cn3)CC2)nc2ccccn12 | > 60 µg/mL
49 | CC(C)(O)CNc1nc(Nc2ccnc(C(F)(F)F)c2)nc(-c2cccc(C(F)(F)F)n2)n1 | 11 µg/mL (≈ 23.2 µM)
50 | Oc1ccc(CNc2cccc(F)c2)c2cccnc12 | < 1 µg/mL

Row | Structure (SMILES) | solubility kinetic
51 | CC(C)(N)C(=O)N[C@H](COCc1ccccc1)C(=O)N1CCC2(CC1)CN(S(C)(=O)=O)c1ccccc12 | > 78 µg/mL
52 | Cc1cccc(NC(=S)N2CCN(c3cccc(C(F)(F)F)c3)CC2)c1 | 1.59 µg/mL (≈ 4.18 µM)
53 | O=C(NCCc1ccccn1)C1CC(=O)N(c2n[nH]c3cc(Br)ccc23)C1 (centres undefined) | 5.42 µg/mL (≈ 12.7 µM)
54 | N#Cc1nc(-c2cccc3ccccc23)oc1NC1CNC1 | 9.62 µg/mL (≈ 33.1 µM)
55 | O=C(Nc1ccc(S(=O)(=O)Nc2nccs2)cc1)c1cccnc1 | > 53 µg/mL
56 | O=C(NC1CCCCC1)N1Cc2[nH]cnc2C[C@H]1c1nc(-c2cccc([N+](=O)[O-])c2)no1 | 14.2 µg/mL (≈ 32.5 µM)
57 | Cc1ccc(C)n1-c1cccc(C(=O)O)c1 | > 32 µg/mL
58 | Cc1cccc(-n2cnc3cc(C(=O)N4CCCCCC4)ccc32)c1 | 41.2 µg/mL (≈ 124 µM)
59 | NC(=O)Nc1cc(-c2ccc(CN3CCOCC3)cc2)sc1C(N)=O | 14.3 µg/mL (≈ 39.6 µM)
60 | CNC(=O)c1ccccc1Nc1nc(Nc2ccc(N3CCOCC3)cc2OC)ncc1Cl | 4.18 µg/mL (≈ 8.91 µM)
61 | NC(=O)C1CCN(c2ncc(-c3ccc4c(c3)OCO4)s2)CC1 | 5.31 µg/mL (≈ 16 µM)
62 | CCOc1ccc(CCNC(=O)c2cc3ccccc3n2Cc2ccc(Cl)c(F)c2)cc1OCC | < 1 µg/mL
63 | COc1cccc(CNc2ccc(S(=O)(=O)Nc3nccs3)cc2)c1 | 27.2 µg/mL (≈ 72.5 µM)
64 | COc1ccc2c(c1)CCc1c-2n[nH]c1C(=O)N1CCc2c(nc3cc(-c4ccccc4)[nH]n3c2=O)C1 | < 1 µg/mL
65 | O=C1Nc2ccccc2/C1=C\c1ccc(C(=O)O)cc1 | > 39 µg/mL
66 | O=C1/C(=C\c2ccccc2)C[C@@]2(O)C3Cc4ccc(O)c5c4[C@@]2(CCN3CC2CC2)[C@H]1O5 | > 42 µg/mL
67 | COc1ccc(-c2nc3ccccc3c(=O)n2Cc2ccccc2)cc1COc1ccc(NC(C)=O)cc1 | < 1 µg/mL
68 | O=C(Nc1nc(-c2ccccc2)cs1)c1ccncc1NS(=O)(=O)c1ccccc1Cl | 20 µg/mL (≈ 42.4 µM)
69 | CCOc1ccc(N2CC(c3nc(-c4cc(OC)c(OC)c(OC)c4)no3)CC2=O)cc1 (centres undefined) | 2.38 µg/mL (≈ 5.41 µM)
70 | CN1CCCC1CCOC(c1cc2nccc(C(=O)O)c2[nH]1)c1ccccc1Cl (centres undefined) | > 61 µg/mL
71 | CN1C(=O)c2ccccc2[S@](=O)c2ccc(C(=O)NCc3ccc(Br)cc3)cc21 | < 1 µg/mL
72 | O=C1CCCc2cc(S(=O)(=O)Nc3cnccc3C(=O)Nc3nc(-c4ccccc4)cs3)ccc2N1 | 62.9 µg/mL (≈ 121 µM)
73 | COC(=O)c1ccc(NC(=O)c2nc3ccccc3n(C)c2=O)cc1 | < 1 µg/mL
74 | CCOc1ccc(/C=C/c2nc3ccccc3n2S(=O)(=O)c2cccc(Cl)c2)cc1 | 0.035 µg/mL (≈ 0.0797 µM)
75 | COc1ccc(C(=O)Nc2nc(-c3ccccc3)cs2)c(OC)c1 | < 1 µg/mL

Row | Structure (SMILES) | solubility kinetic
76 | c1ccc2c(N3CCOCC3)nc(-c3ccncc3)nc2c1 | > 43 µg/mL
77 | CC1=C(C(=O)Nc2nc3ccccc3s2)C(c2[nH]ncc2Cl)N=C(Nc2nc3ccccc3o2)N1 (centres undefined) | < 1 µg/mL
78 | Cc1ccnc(NC(=S)N2CCN(c3ccc(C(F)(F)F)cc3[N+](=O)[O-])CC2)c1 | 4.11 µg/mL (≈ 9.67 µM)
79 | COc1ccc(-n2cnc3cc(C(=O)N4CCCCC4)ccc32)cc1 | > 50 µg/mL
80 | Cc1ccc(S(=O)(=O)Nc2cc3c(cc2C(=O)Nc2nc(-c4ccccc4)cs2)OCO3)cc1 | < 1 µg/mL
81 | Cc1cccc2oc(NC3=NC(c4[nH]ncc4Cl)C4=C(CCCC4=O)N3)nc12 (centres undefined) | < 1 µg/mL
82 | CCc1ccc(S(=O)(=O)Nc2cnccc2C(=O)Nc2nc(-c3ccccc3)cs2)cc1 | < 1 µg/mL
83 | O=S(=O)(Nc1nccs1)c1ccc(NCc2ccc(Br)cc2O)cc1 | < 1 µg/mL
84 | COc1ccc(-n2nc(C3CCCN(C(=O)c4ccccc4)C3)[nH]c2=O)cc1 (centres undefined) | > 56 µg/mL
85 | Cc1ccc(-c2csc(Nc3ccc(S(=O)(=O)Nc4nccs4)cc3)n2)cc1C | < 1 µg/mL
86 | O=c1c2ccccc2nc2n1CCC2 | > 27 µg/mL
87 | NC(=O)C1CCN(c2nc(-c3ccccc3)cs2)CC1 | > 42 µg/mL
88 | O=[S+]([O-])(Nc1ccc(-c2ccccc2)cc1)c1ccc(NCc2ccc(Cl)cc2O)cc1 | < 1 µg/mL
89 | Cc1cccc(-n2cnc3cc(C(=O)N4CCCC(C)C4)ccc32)c1 (centres undefined) | 26.4 µg/mL (≈ 79.3 µM)
90 | COc1cccc(C(=O)Nc2ccc3c(N4CCOCC4)ncnc3c2)c1 | > 54 µg/mL
91 | COc1ccc2cc1Oc1ccc(cc1)C[C@@H]1c3c(cc(OC)c4c3Oc3cc5c(cc3O4)CCN[C@H]5C2)CCN1C | < 1 µg/mL
92 | COc1cccc(CNc2ccc(S(=O)(=O)Nc3cccc4ccncc34)cc2)c1O | < 1 µg/mL
93 | CN(C)C(=O)c1nc(-c2ccc(Cl)nc2)c2ccccn12 | 27.6 µg/mL (≈ 91.8 µM)
94 | O=C(Nc1ncc(Cc2ccc(C(F)(F)F)cc2)s1)c1cn(-c2ccccc2)cn1 | < 1 µg/mL
95 | CCOc1cc(-c2nccc3cc(OC)c(OC)cc23)cc(OCC)c1OCC | 13.8 µg/mL (≈ 34.6 µM)
96 | O=C(c1ccc2c(c1)ncn2-c1cccc(Cl)c1)N1CCCCC1 | > 50 µg/mL
97 | CCN(CCO)CCCOc1ccc2c(Nc3cc(CC(=O)Nc4cccc(F)c4)[nH]n3)ncnc2c1 | > 75 µg/mL
98 | O=S(=O)(Nc1nccs1)c1ccc(NCc2cccc3cc[nH]c23)cc1 | 20.5 µg/mL (≈ 53.2 µM)
99 | Cc1ccccc1S(=O)(=O)Nc1cnccc1C(=O)Nc1nc(-c2ccccc2)cs1 | 49.9 µg/mL (≈ 111 µM)

Source: PubChem BioAssay AID1645848
